Values joined by “and” are separate entries in the source; they are usually repeats but may differ in a detail not shown here. Equal values may be shown once.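 Cells were grown in 96-well plates and exposed to each compound for 48 hours at five concentrations; endpoints were interpolated linearly between bracketing concentrations, or set to the highest concentration if not reached. GI50 marks 50% less growth. TGI: total growth inhibition.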
What was measured:
Test in all cases: growth of human tumour cells (NCI), 48 h
HOP-92 NSCLC = tested on: HOP-92 NSCLC
RPMI-8226 leukemia = tested on: RPMI-8226 leukemia
PC-3 prostate = tested on: PC-3 prostate
NCI-H460 lung = tested on: NCI-H460 lung
LOX IMVI melanoma = tested on: LOX IMVI melanoma
SK-MEL-5 melanoma = tested on: SK-MEL-5 melanoma
SK-MEL-2 melanoma = tested on: SK-MEL-2 melanoma
BT-549 breast = tested on: BT-549 breast
EKVX NSCLC = tested on: EKVX NSCLC
HS 578T breast = tested on: HS 578T breast

SMILES | TGI (HOP-92 NSCLC) | TGI (RPMI-8226 leukemia) [µM] | TGI (PC-3 prostate) [µM] | TGI (NCI-H460 lung) | TGI (LOX IMVI melanoma) | TGI (SK-MEL-5 melanoma) [µM] | TGI (SK-MEL-2 melanoma) | TGI (BT-549 breast) [µM] | TGI (EKVX NSCLC) [µM] | GI50 (HOP-92 NSCLC) [µM] | GI50 (RPMI-8226 leukemia) [µM] | GI50 (LOX IMVI melanoma) [µM] | GI50 (SK-MEL-2 melanoma) [µM] | GI50 (SK-MEL-5 melanoma) [µM] | TGI (HS 578T breast) [µM]
Cc1ccc(C(=O)C2=CN=C3C(=O)N(c4ccccc4)N(C)C3(C)C2=N)cc1 (configuration not stated) | > 100 µM | > 100 | > 100 | > 100 µM | > 100 µM | > 100 | > 100 µM | > 100 | > 100 |  |  |  |  |  | 
CCOC(=O)c1nc2cc(C(F)(F)F)ccc2nc1Nc1ccc(F)cc1 | 49.6 µM | 61.6 | > 100 | > 100 µM | > 100 µM | > 100 | > 100 µM | > 100 | > 100 |  |  |  |  |  | 
COC(=O)[C@@]12OC[C@]34C([C@@H](O)C1O)[C@@]1(C)CC(=O)C(O)=C(C)C1C[C@H]3OC(=O)[C@H](OC(=O)/C=C(/c1ccccc1)C(F)(F)F)[C@H]42 (some centres not stated) | 17.1 µM |  |  | 6.71 µM |  | 13.4 | > 25 µM |  | > 25 |  |  |  |  |  | 
CC1(C)OCC(COC(=O)NCn2cc(-c3ccccc3)nn2)O1 (configuration not stated) | > 100 µM | > 100 | > 100 | > 100 µM | > 100 µM | > 100 | > 100 µM | > 100 | > 100 |  |  |  |  |  | 
COc1c(-c2cccs2)oc2c(CC(=O)O)cccc2c1=O |  | 5.92 | > 100 |  |  | > 100 | > 100 µM | > 100 | > 100 |  |  |  |  |  | 
C=C1C(=O)O[C@@H]2OC3(C)CCC4C(C)CCC1C42OO3 (some centres not stated) | 6.5 µM and 4.48 µM |  |  | 8.04 µM and 5.58 µM | 12.9 µM and 8.11 µM | 17.2 | 15.4 µM and 5.51 µM |  | 24.7 | 2.54 | 0.573 | 3.55 | 3.79 |  | 
C/C(=N\NC(=O)c1cccnc1)c1cccc(/C(C)=N/NC(=O)c2cccnc2)n1.CC(=O)[O-].CC(=O)[O-].[Zn+2] | 6.47 µM | > 100 |  | > 100 µM | > 32.5 µM | > 28.6 | > 54.9 µM |  | > 100 | 1.55 |  |  |  | 12.9 | 
NC(=O)CCC(NC(=O)c1cccc2c(=O)c3ccccc3[nH]c12)C(=O)O (configuration not stated) | > 100 µM | > 100 | > 100 |  | > 100 µM | > 100 | > 100 µM |  | > 100 |  |  |  |  |  | > 100
COc1ccc(N=N/C(=N/NC(=O)c2cc(Cl)ccc2C(=O)c2ccccc2)c2ccc(N(CCC#N)CCC#N)cc2C)cc1 |  | 44.4 | 41.4 | 45.3 µM |  | 31.6 | 50 µM | > 100 | 61.1 |  |  |  |  |  | > 100
CC(C)(C)c1cc(/C=C/C(=O)CC(=O)/C=C/c2cc(C(C)(C)C)c(O)c(C(C)(C)C)c2)cc(C(C)(C)C)c1O |  | > 50 | > 50 | > 50 µM | > 50 µM | > 50 | > 50 µM | > 50 | > 50 |  |  |  |  |  | > 50
CC1CC(=O)Nc2ccc(N=NN(C)C)cc2N1C=O (configuration not stated) |  | > 100 | > 100 | > 100 µM |  | > 100 | > 100 µM | > 100 | > 100 |  |  |  |  |  | > 100
O=C1OC(c2ccc(Cl)cc2)(c2ccc(Cl)cc2)c2c1ccc1ccccc21 |  | > 100 |  | > 100 µM | > 100 µM | > 100 | > 100 µM |  | > 100 |  |  |  |  |  | 
CCNc1cc2c3c(c1)CCCN3CCC2 | 44.4 µM | 57.1 | 35.6 | 29.8 µM | 13.5 µM | 28.2 | 30 µM |  | 48.4 |  |  |  |  |  | 78.5
CC(O)c1cc2c(s1)C(=O)c1scc(C(C)O)c1C2=O (configuration not stated) | 7.07 µM | 0.626 | 3.48 | 2.1 µM | > 100 µM | 0.351 | 0.606 µM | 0.403 | 2.93 |  |  |  |  |  | 
COc1nc2ccc(CNc3ccc(C(=O)O)cc3)cc2nc1OC |  | > 10 | > 10 | > 10 µM | > 10 µM | > 10 | > 10 µM | > 10 | > 10 |  |  |  |  |  | > 10
COc1cc([C@@H]2c3cc4c(cc3[C@@H](N=Cc3ccc(C(=O)O[C@@H](C(=O)O[C@H]5C[C@@]6(O)[C@@H](OC(=O)c7ccccc7)[C@@H]7[C@]8(OC(C)=O)CO[C@@H]8C[C@H](O)[C@@]7(C)C(=O)[C@H](OC(C)=O)C(=C5C)C6(C)C)[C@@H](NC(=O)c5ccccc5)c5ccccc5)cc3)[C@H]3COC(=O)[C@H]23)OCO4)cc(OC)c1O | > 50 µM |  |  | > 50 µM | > 50 µM | > 50 |  | > 11.7 | > 47 |  |  |  |  |  | > 50
CCC/C(Cl)=N\OC(=O)Nc1ccc(F)c([N+](=O)[O-])c1 | 31.7 µM | > 100 | 28.5 | 34.9 µM | 66.8 µM | 35.2 | 27.3 µM | 22.4 | 29.9 |  |  |  |  |  | 
CO[C@H]1C[C@H](n2cc(C)c(=O)[nH]c2=O)O[C@@H]1CO |  | > 100 | > 100 | > 100 µM | > 100 µM | > 100 |  | > 100 | > 100 |  |  |  |  |  | > 100
COc1cc(/C=C2\N=C(C)N(n3c(-c4ccccc4)nc4ccccc4c3=O)C2=O)cc(OC)c1OC |  | > 100 | > 100 | > 100 µM | > 100 µM | > 100 |  | > 100 | > 100 |  |  |  |  |  | > 100
O=S(=O)(O)c1cc(Nc2ccnc3ccccc23)c2c(S(=O)(=O)O)cc(S(=O)(=O)O)cc2c1 |  | > 100 | > 100 | > 100 µM | > 100 µM | > 100 | > 100 µM | > 100 | > 100 |  |  |  |  |  | > 100
COc1ccc(S(=O)(=O)Nc2ccc(-c3csc(N4C(=O)/C(=C/c5ccccc5)N=C4c4ccccc4)n3)cc2)cc1Cl | 69.7 µM |  | > 100 | > 100 µM | > 100 µM | > 100 | > 100 µM |  |  |  |  |  |  |  | > 100
C=CC[C@@H]1C=C[C@@H](C(=O)OC)n2c(=O)n(-c3ccccc3)c(=O)n21 | > 100 µM | > 100 |  |  | > 100 µM | > 100 |  | > 100 | > 100 |  |  |  |  |  | > 100
CN1CCN(/C(N)=C(\C#N)C(=O)Nc2ccccc2)CC1 | > 100 µM | > 100 | > 100 | > 100 µM | > 100 µM | > 100 | > 100 µM | > 100 | > 100 |  |  |  |  |  | 
